For one experiment, the system named is EBC-1 cell line. In words: Cell proliferation inhibition experiment (CellTiter-Glo), EBC-1. The class given is cell-based. Particulars: Homo sapiens, CTG, 72 h. The method, then:
(§1) CellTiter-Glo™ live cell detection kit adopts luciferase as the detection substance, and the luciferase needs the participation of ATP in the luminescence process. CellTiter-Glo™ reagent was added into the cell culture medium and the luminescence value was measured. The light signal is in direct proportion to the amount of ATP in the system, ATP is in direct correlation with number of living cells. Therefore, the proliferation of cells can be detected by detecting the content of ATP with CellTiter-Glo kit.
(§2) In the experiment, the proliferation inhibition effect of the prepared compounds on tumor cell lines Hs746T, EBC-1 and H1993 was measured by a celltiter-glo (CTG) method, and 50% inhibition concentration IC50 was calculated.
(§3) The compounds were determined on the selected cells, the solvent control was set and a total of 10 concentrations were detected, 2 replicates per concentration.
(§4) a) Cells in the logarithmic growth phase were harvested and counted by a […]. The cell viability was detected by a trypan blue exclusion method to ensure that the cell viability was over 90%.
(§5) b) The cell concentration was adjusted; 30 μL of cell suspension was added to a 384-well plate respectively.
(§6) c) Cells in a 384-well plate were incubated overnight at 37° C., 5% CO2 and 95% humidity.
(§7) a) 10 times of drug solution was prepared with the highest concentration of 10 mM, 10 concentrations and 3 times dilution, 10 μL of drug solution was added into each well of a 384-well plate inoculated with cells, and three multiple wells were arranged for each drug concentration. DMSO was the blank control.
(§8) b) The cells in the 384-well plate were incubated for a further 72 h at 37° C., 5% CO2 and 95% humidity before CTG analysis.
(§9) a) The CTG reagent was melted and the cell plate was equilibrated to room temperature for 30 min.
(§10) b) An equal volume of CTG solution was added to each well.
(§11) c) Cells were lysed by shaking on an orbital shaker for 5 minutes.
(§12) d) The cell plate was left at room temperature for 20 minutes to stabilize the luminescence signal.
(§13) e) The cold light value was read.
(§14) The data was analyzed by GraphPad Prism 8 software, and the dose-response curve was fitted with nonlinear S-curve regression, and the IC50 value was calculated therefrom.
(§15) Cell viability(%)=(Lumdrugs to be tested-Lumblank control)/(Lumcell control-Lumblank control)×100%.
Background: In ATP-based viability assays light output follows the ATP content of the culture.

In a further experiment the test system is Hs746T cell line. In words: Cell proliferation inhibition experiment (CellTiter-Glo), Hs746T. The class given is cell-based. Particulars: Homo sapiens, Hs 746T, CTG, 72 h. The method, then: as §1, §2, §3, §4, §5, §6, §7, §8, §9, §10, §11, §12, §13, §14, §15
The target of the next experiment is T1, MET D1228N (Homo sapiens, UniProt P08581, D1228N).
T1 construct: purchased Signalchem M52-12IG
In words: Kinase inhibition experiment (HTRF KinEASE-TK kit), mutant MET D1228N. The class given is biochemical. Particulars: 10 concentrations, 3-fold dilution. A digest of the protocol: (§16)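 Wild-type or mutant MET pre-incubated 10 min with compound (10 concentrations, 3-fold dilutions, duplicates), then TK-substrate-biotin/ATP added for 50 or 10 min at room temperature in buffer with 5 mM MgCl2, 1 mM DTT, 1 mM MnCl2. HTRF read at 665/615 nm; % inhibition vs controls, IC50 by nonlinear sigmoidal fit.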
A general note: Time-resolved FRET reads energy transfer from a long-lived donor to a nearby acceptor.

Experiment [1] deals with T2, wild type (WT) MET kinase (Homo sapiens, UniProt P08581).
T2 construct: purchased Carna 08-151
Briefly: Kinase inhibition experiment (HTRF KinEASE-TK kit), wild-type MET. Particulars: 10 concentrations, 3-fold dilution. Type of experiment: biochemical. A digest of the protocol:
as §16

In a further experiment the target is T3, MET F1200I (Homo sapiens, UniProt P08581, F1200I).
T3 construct: purchased Signalchem M52-12GG/Y767-2
In words: Kinase inhibition experiment (HTRF KinEASE-TK kit), mutant MET F1200I. The class given is biochemical. The settings on record: 10 concentrations, 3-fold dilution. In outline:
as §16

Another experiment concerns H1993 cell line. In words: Cell proliferation inhibition experiment (CellTiter-Glo), H1993. The class given is cell-based. The settings on record: Homo sapiens, NCI-H1993, CTG, 72 h. The method, then: as §1, §2, §3, §4, §5, §6, §7, §8, §9, §10, §11, §12, §13, §14, §15

From patent publication US20250092033A1, “HETEROAROMATIC NITROGEN-OXIDE COMPOUND, PREPARATION METHOD THEREFOR, AND USE THEREOF” (BEIJING AVISTONE BIOTECHNOLOGY CO., LTD., priority 2021, published 2025) come the findings set out here.

T3 sequence (P08581 25-1390 F1200I): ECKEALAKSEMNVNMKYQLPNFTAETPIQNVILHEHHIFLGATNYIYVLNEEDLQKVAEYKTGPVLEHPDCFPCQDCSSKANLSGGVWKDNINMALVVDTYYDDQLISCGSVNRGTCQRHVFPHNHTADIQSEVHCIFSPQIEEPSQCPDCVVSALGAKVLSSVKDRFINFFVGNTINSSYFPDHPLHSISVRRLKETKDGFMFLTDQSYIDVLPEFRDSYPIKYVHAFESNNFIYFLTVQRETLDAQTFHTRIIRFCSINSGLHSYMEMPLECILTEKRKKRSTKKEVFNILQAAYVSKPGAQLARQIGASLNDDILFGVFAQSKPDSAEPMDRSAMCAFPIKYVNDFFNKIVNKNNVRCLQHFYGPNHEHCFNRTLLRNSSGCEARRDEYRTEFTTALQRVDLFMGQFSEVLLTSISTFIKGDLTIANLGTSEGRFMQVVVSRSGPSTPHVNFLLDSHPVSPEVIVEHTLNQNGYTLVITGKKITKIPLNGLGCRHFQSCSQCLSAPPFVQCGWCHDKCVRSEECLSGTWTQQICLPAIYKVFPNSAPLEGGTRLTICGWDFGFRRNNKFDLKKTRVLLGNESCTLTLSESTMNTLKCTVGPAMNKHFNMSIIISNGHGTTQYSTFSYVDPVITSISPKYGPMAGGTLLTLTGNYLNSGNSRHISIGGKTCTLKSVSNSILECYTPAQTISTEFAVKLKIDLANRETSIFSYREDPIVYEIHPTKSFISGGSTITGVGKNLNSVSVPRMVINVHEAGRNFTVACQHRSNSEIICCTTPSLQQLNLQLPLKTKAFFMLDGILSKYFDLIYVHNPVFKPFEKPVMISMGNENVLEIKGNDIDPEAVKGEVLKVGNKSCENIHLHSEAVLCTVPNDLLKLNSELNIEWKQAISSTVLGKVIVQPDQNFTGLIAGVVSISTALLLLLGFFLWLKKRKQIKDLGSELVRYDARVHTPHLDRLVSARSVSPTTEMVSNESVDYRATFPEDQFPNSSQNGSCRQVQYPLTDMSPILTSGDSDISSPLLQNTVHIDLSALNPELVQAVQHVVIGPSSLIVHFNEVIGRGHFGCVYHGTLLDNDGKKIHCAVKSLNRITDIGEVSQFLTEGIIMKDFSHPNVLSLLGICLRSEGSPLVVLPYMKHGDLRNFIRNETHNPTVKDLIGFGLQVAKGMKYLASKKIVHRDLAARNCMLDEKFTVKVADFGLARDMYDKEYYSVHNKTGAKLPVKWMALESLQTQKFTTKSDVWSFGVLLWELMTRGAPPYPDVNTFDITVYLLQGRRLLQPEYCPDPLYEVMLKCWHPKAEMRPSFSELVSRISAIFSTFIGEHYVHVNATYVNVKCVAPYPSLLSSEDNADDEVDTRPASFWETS
T2 sequence (P08581 25-1390): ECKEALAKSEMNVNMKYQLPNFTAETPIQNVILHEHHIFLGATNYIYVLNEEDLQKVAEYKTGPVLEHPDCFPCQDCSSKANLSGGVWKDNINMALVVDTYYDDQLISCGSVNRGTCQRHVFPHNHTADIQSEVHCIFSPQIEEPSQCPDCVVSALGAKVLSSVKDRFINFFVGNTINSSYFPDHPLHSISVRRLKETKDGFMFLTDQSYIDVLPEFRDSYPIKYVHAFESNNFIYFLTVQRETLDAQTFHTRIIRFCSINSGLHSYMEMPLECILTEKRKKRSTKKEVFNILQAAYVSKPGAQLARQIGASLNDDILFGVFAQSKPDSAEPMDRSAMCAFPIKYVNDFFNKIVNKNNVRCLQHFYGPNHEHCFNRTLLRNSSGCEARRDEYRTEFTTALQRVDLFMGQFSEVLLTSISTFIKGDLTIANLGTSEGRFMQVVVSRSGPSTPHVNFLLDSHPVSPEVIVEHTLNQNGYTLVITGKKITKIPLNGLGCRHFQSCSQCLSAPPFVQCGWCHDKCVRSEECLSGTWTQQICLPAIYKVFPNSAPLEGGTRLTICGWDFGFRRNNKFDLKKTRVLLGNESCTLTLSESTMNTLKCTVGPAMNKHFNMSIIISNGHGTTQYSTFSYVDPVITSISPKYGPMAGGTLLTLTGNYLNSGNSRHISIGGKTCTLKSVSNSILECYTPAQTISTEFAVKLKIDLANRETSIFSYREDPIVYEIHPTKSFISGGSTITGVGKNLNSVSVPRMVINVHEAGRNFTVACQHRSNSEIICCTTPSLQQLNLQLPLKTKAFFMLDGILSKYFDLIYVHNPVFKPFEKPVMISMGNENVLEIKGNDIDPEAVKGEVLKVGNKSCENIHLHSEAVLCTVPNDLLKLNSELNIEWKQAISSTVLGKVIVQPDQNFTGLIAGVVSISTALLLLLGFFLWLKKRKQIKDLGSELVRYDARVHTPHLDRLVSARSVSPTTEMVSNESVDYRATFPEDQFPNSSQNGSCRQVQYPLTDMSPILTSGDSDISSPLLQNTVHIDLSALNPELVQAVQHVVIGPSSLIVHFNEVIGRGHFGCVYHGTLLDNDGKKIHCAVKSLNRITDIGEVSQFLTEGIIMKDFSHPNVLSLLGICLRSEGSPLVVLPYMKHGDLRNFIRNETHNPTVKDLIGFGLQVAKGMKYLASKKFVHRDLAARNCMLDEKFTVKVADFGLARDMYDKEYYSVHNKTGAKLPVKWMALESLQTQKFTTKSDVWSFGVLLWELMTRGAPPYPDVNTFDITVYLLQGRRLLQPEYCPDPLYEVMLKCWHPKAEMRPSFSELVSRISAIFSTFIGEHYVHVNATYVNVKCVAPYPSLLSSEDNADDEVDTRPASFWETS
T1 sequence (P08581 25-1390 D1228N): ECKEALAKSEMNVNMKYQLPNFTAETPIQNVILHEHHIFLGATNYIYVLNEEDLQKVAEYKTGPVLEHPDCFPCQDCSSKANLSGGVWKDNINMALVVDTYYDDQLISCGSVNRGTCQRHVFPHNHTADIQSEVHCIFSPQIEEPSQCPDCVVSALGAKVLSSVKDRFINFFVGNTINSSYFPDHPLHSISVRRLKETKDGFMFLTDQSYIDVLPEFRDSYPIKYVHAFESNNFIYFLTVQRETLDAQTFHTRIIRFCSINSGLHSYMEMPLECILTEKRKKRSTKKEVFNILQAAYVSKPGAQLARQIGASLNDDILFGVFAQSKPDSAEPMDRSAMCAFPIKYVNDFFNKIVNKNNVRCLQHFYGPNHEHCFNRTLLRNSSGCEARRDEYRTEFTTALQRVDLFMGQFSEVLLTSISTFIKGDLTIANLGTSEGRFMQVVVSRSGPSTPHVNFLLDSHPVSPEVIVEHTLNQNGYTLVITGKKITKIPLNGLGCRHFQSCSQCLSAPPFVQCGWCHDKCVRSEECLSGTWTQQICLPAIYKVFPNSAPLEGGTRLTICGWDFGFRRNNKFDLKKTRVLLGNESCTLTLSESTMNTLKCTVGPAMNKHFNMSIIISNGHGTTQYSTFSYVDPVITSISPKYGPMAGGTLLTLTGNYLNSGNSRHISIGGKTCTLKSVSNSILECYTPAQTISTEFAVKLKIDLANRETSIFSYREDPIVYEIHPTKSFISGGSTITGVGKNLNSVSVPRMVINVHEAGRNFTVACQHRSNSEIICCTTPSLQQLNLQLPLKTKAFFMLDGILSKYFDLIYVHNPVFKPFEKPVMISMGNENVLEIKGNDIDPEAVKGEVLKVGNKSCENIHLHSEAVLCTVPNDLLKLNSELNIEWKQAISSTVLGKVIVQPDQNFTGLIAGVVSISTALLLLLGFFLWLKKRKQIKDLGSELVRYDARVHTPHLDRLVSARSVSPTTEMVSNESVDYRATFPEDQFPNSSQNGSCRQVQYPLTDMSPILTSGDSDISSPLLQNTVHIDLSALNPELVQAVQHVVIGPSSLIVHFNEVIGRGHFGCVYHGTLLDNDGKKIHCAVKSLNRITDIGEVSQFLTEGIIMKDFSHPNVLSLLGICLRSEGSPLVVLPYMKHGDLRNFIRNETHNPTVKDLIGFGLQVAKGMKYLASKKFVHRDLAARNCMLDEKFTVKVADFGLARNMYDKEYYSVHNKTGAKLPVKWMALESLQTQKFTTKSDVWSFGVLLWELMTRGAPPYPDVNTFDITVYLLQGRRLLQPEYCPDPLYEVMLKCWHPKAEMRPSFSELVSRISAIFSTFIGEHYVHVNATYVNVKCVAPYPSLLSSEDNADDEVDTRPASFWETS

On to `Cc1ccc(C(=O)Nc2ccc(Oc3ccnc4[nH]nc(N[C@H](C)CO)c34)c(F)c2)[n+]([O-])c1-c1ccc(F)cc1` [Final product 67], for which the IC50 (commonly the concentration needed to halve the response being measured) with EBC-1 cell line stood at 6.6 nM; with Hs746T cell line, 4.2 nM; at MET D1228N, 12.3 nM; in experiment [1], 4 nM; on MET F1200I, 16.3 nM; in the experiment with H1993 cell line, 19.1 nM.
On to `Cc1ccc(C(=O)Nc2ccc(Oc3ccnc4[nH]nc(NCC(O)CO)c34)c(F)c2)[n+]([O-])c1-c1ccc(F)cc1` (stereo not drawn) [Final product 69], for which the IC50 in the experiment with EBC-1 cell line stood at 29.3 nM; in the experiment on Hs746T cell line it was 19.6 nM; against MET D1228N, 25.4 nM; in experiment [1], 3 nM; on MET F1200I, 12.3 nM; in the experiment with H1993 cell line, 68.4 nM.
With `CCc1ccc(C(=O)Nc2ccc(Oc3ccnc4[nH]nc(N[C@H](C)CO)c34)c(F)c2)[n+]([O-])c1-c1ccc(F)cc1` [Final product 80], the IC50 in the experiment with EBC-1 cell line was determined as 8.7 nM; in the experiment with Hs746T cell line it was 9.6 nM; on MET D1228N, 9.8 nM; in experiment [1], 1.5 nM; against MET F1200I, 2.3 nM; in the experiment on H1993 cell line it was 26.8 nM.
For the compound `COc1ccc(C(=O)Nc2ccc(Oc3ccnc4[nH]nc(N[C@H](C)CO)c34)c(F)c2)[n+]([O-])c1-c1ccc(F)cc1` [Final product 85], the IC50 in the experiment with EBC-1 cell line was 10.4 nM; in the experiment with Hs746T cell line, 9.4 nM; at MET D1228N it was 10.5 nM; in experiment [1], 3.7 nM; on MET F1200I, 2.3 nM; in the experiment with H1993 cell line, 29.6 nM.
As for `C[C@H](CO)Nc1n[nH]c2nccc(Oc3ccc(NC(=O)c4cccc(-c5ccc(F)cc5)[n+]4[O-])cc3Cl)c12` [Final product 97], the IC50 in the experiment with EBC-1 cell line was 12.9 nM; in the experiment on Hs746T cell line it was 12.1 nM; against MET D1228N, 20.8 nM; in experiment [1] it was 3.3 nM; at MET F1200I, 7 nM; in the experiment with H1993 cell line, 36.4 nM.
Turning to `C[C@H](CO)Nc1n[nH]c2nccc(Oc3ccc(NC(=O)c4ccc(F)c(-c5ccc(F)cc5)[n+]4[O-])cc3Cl)c12` [Final product 117], the IC50 in the experiment with EBC-1 cell line is 17.2 nM; in the experiment on Hs746T cell line, 7 nM; at MET D1228N, 17.8 nM; in experiment [1] it was 0.9 nM; against MET F1200I, 0.9 nM; with H1993 cell line, 57.2 nM.
Take `Cc1ccc(C(=O)Nc2ccc(Oc3ccnc4[nH]nc(N[C@H](C)CO)c34)c(Cl)c2)[n+]([O-])c1-c1ccc(F)cc1` [Final product 124]: the IC50 with EBC-1 cell line stood at 14.9 nM; in the experiment on Hs746T cell line it was 21.9 nM; against MET D1228N, 7.6 nM; in experiment [1] it was 0.8 nM; against MET F1200I, 0.8 nM; with H1993 cell line, 29.9 nM.
Regarding `COc1ccc(C(=O)Nc2ccc(Oc3ccnc4[nH]nc(N[C@H](C)CO)c34)c(Cl)c2)[n+]([O-])c1-c1ccc(F)cc1` [Final product 138], the concentration for half-maximal inhibition (IC50) is 9.4 nM in the experiment on EBC-1 cell line; 8.7 nM in the experiment with Hs746T cell line; 38.5 nM on MET D1228N; 1.6 nM in experiment [1]; 0.6 nM against MET F1200I; 29.3 nM in the experiment on H1993 cell line.
`O=C(Nc1ccc(Oc2ccnc3[nH]cc(-c4cccnc4)c23)c(F)c1)c1ccc(Cl)c(-c2ccc(F)cc2)[n+]1[O-]` [Final product 185, reference compound]: the half-maximal inhibitory concentration (IC50) in the experiment on EBC-1 cell line came out at 133 nM; with Hs746T cell line, 155 nM; against MET D1228N it was 62 nM; in experiment [1], 20.4 nM; against MET F1200I, 187 nM; with H1993 cell line, 204 nM.
